Source: patent US9464084B2, “P2X7 modulators” (Janssen Pharmaceutica NV, priority 2013, dated 2016)
Counter-ions that a name gives are not always drawn.

Columns and labels:
P2X7 [1] = biological target: T1, P2X7 (Homo sapiens (Human), UniProt Q99572); test: P2X7 antagonism in human PBMCs (LPS + Bz-ATP induced IL-1β release, ELISA); type: cell-based; details: LPS 30 ng/ml, Bz-ATP 0.5 mM; for PBMC 1 μM (% control): compound 1 μM; for PBMC 10 μM (% control): compound 10 μM;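 on all read-outs here: PBMCs from donor human blood, with a further 1.5 h incubation of the cells in the assay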
T1 sequence (Q99572 whole entry): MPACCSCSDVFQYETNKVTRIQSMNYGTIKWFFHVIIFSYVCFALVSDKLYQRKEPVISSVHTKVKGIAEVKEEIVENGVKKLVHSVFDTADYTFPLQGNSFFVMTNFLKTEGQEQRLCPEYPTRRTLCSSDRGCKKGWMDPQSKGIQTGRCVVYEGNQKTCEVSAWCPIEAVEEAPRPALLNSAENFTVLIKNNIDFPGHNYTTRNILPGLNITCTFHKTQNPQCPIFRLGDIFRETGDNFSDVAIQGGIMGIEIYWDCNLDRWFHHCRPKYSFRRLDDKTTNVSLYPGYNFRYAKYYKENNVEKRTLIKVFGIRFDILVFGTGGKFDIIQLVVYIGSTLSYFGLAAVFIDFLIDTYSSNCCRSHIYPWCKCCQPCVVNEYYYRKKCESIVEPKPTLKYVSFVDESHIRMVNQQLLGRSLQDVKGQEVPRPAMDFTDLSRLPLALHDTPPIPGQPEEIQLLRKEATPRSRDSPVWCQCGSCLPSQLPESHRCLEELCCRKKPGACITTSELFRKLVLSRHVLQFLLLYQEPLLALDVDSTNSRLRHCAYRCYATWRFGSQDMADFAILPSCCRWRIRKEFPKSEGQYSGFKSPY

P2X7 [2] = biological target: T1, P2X7; test: Ca2+ flux (FLIPR) in 1321N1 cells expressing recombinant human P2X7 channel; type: cell-based; details: 250 μM BzATP;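 further: Calcium-4 dye-loaded cells exposed to compound for 30 min before agonist addition, fluorescence change read 180 s after agonist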
Protocol: Cells were seeded at a density of 25000 cells/well (96-well clear bottom black walled plates) in 100 μl volume/well. On the day of the experiment, cell plates were washed with assay buffer, containing (in mM): 130 NaCl, 2 KCl, 1 CaCl2, 1 MgCl2, 10 HEPES, 5 glucose; pH 7.40 and 300 mOs. After the wash, cells were loaded with the Calcium-4 dye (Molecular Device) and incubated in the dark for 60 minutes. Test compounds were prepared at 250× the test concentration in neat DMSO. Intermediate 96-well compound plates were prepared by transferring 1.2 μL of the compound into 300 μL of assay buffer. A further 3× dilution occurred when transferring 50 μL/well of the compound plate to 100 μL/well in the cell plate. Cells were incubated with test compounds and dye for 30 minutes. […] The fluorescence change was measured 180 seconds after adding the agonist.

P2X7 [3] = biological target: T1, P2X7; test: Radioligand binding, tritiated A-804598, human P2X7-1321N1 cell membranes; details: 1 hour at 4° C.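 Further: ki obtained from the binding IC50 after correction for tracer concentration and tracer affinity.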
Protocol: On the day of the experiment, cell membrane preparations were made according to standard published methods. […] The assay was terminated by filtration (GF/B filters pre-soaked with 0.3% PEI) and washed with washing buffer (Tris-HCl 50 mM). The IC50 generated in the binding assay was corrected for tracer concentration and affinity of the tracer to derive at the affinity (Ki) of the test compounds.

rat P2X7 = rat P2X7 (Rattus norvegicus (Rat), UniProt Q64663); test: Ca2+ flux (FLIPR) in 1321N1 cells expressing recombinant rat P2X7 channel; type: cell-based; details: 250 μM BzATP;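 further: Calcium-4 dye fluorescence change read 180 s after agonist addition, following 30 min cell preincubation with test compound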
Chain of rat P2X7 (Q64663 whole entry): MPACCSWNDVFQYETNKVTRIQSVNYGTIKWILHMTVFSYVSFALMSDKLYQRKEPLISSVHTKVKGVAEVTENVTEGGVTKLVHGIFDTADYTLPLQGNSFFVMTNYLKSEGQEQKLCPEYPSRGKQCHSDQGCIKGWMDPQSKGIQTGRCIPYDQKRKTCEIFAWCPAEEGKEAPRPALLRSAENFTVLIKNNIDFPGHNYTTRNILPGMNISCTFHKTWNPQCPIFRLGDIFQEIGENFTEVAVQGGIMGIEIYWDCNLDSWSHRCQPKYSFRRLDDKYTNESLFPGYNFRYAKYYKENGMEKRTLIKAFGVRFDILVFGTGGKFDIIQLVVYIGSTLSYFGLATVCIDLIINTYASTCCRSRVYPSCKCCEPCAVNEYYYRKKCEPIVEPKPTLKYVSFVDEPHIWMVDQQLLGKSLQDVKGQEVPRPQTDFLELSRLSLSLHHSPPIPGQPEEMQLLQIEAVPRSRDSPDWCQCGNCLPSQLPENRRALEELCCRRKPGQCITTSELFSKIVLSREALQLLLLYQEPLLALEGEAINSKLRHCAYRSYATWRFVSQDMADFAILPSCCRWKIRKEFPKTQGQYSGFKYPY

Row | SMILES | PBMC 1 μM (% control) (P2X7 [1]) | IC50 (P2X7 [2]) [nM] | Ki (P2X7 [3]) [nM] | IC50 (rat P2X7) [nM] | PBMC 10 μM (% control) (P2X7 [1])
1 | O=C(c1cccc(C(F)(F)F)c1Cl)N1C=Cc2c(ncn2-c2cnccn2)C1 [Example 54, 5-{[2-Chloro-3-(trifluoromethyl)phenyl]carbonyl}-1-pyrazin-2-yl-4,5-dihydro-1H-imidazo[4,5-c]pyridine] | 8.6 | 198 | 43.7 | 4110 | –
2 | CCC1c2ncn(-c3cnccn3)c2C=CN1C(=O)c1cccc(C(F)(F)F)c1Cl (stereo not shown) [Example 55, 5-{[2-Chloro-3-(trifluoromethyl)phenyl]carbonyl}-4-ethyl-1-pyrazin-2-yl-4,5-dihydro-1H-imidazo[4,5-c]pyridine] | 11.3 | 16.7 | 126 | 259 | –
3 | O=C(c1cccc(Cl)c1Cl)N1CCc2c(nc(C(F)(F)F)n2-c2ccccc2)C1 [Example 58, 5-[(2,3-Dichlorophenyl)carbonyl]-1-phenyl-2-(trifluoromethyl)-4,5,6,7-tetrahydro-1H-imidazo[4,5-c]pyridine] | – | 10.7 | 126 | 766 | −2.0
4 | O=C(c1cccc(C(F)(F)F)c1F)N1CCc2c(ncn2-c2ccn[nH]2)C1 [Example 59, 5-{[2-Fluoro-3-(trifluoromethyl)phenyl]carbonyl}-1-(1H-pyrazol-5-yl)-4,5,6,7-tetrahydro-1H-imidazo[4,5-c]pyridine] | – | 378 | 501 | 527 | 10.2
5 | O=C(c1cccc(C(F)(F)F)c1Cl)N1CCc2c(nnn2-c2ccccc2)C1 [Example 61, 5-{[2-Chloro-3-(trifluoromethyl)phenyl]carbonyl}-1-phenyl-4,5,6,7-tetrahydro-1H-[1,2,3]triazolo[4,5-c]pyridine] | −0.1 | 4.7 | 38.9 | 1400 | –
6 | O=C(c1cccc(Cl)c1Cl)N1CCc2c(nnn2-c2ccccc2)C1 [Example 62, 5-[(2,3-Dichlorophenyl)carbonyl]-1-phenyl-4,5,6,7-tetrahydro-1H-[1,2,3]triazolo[4,5-c]pyridine] | 5.2 | 76.2 | 43.7 | 4280 | –
7 | O=C(c1cccc(C(F)(F)F)c1Cl)N1CCc2c(nnn2-c2ccn[nH]2)C1 [Example 68, 5-{[2-Chloro-3-(trifluoromethyl)phenyl]carbonyl}-1-(1H-pyrazol-5-yl)-4,5,6,7-tetrahydro-1H-[1,2,3]triazolo[4,5-c]pyridine] | – | 16.9 | 18.2 | 184 | 12.9
8 | O=C(c1cccc(C(F)(F)F)c1F)N1CCc2c(nnn2-c2cnccn2)C1 [Example 69, 5-{[2-Fluoro-3-(trifluoromethyl)phenyl]carbonyl}-1-pyrazin-2-yl-4,5,6,7-tetrahydro-1H-[1,2,3]triazolo[4,5-c]pyridine] | – | 106 | 14.1 | 1460 | 6.8
9 | CC1c2nnn(-c3cnccn3)c2C=CN1C(=O)c1cccc(C(F)(F)F)c1Cl (stereo not shown) [Example 72, 5-{[2-Chloro-3-(trifluoromethyl)phenyl]carbonyl}-4-methyl-1-pyrazin-2-yl-4,5-dihydro-1H-[1,2,3]triazolo[4,5-c]pyridine] | −5.7 | 4.2 | 29.5 | 169 | –
10 | O=C(c1cccc(C(F)(F)F)c1Cl)N1CCc2[nH]nnc2C1c1ccccc1 (stereo not shown) [Example 78, 5-{[2-Chloro-3-(trifluoromethyl)phenyl]carbonyl}-4-phenyl-4,5,6,7-tetrahydro-1H-[1,2,3]triazolo[4,5-c]pyridine] | 57.7 | 63.1 | 100 | 501 | –
11 | CC1c2nnn(-c3ncccn3)c2C=CN1C(=O)c1cccc(C(F)(F)F)c1Cl (stereo not shown) [Example 79, 5-{[2-Chloro-3-(trifluoromethyl)phenyl]carbonyl}-4-methyl-1-pyrimidin-2-yl-4,5-dihydro-1H-[1,2,3]triazolo[4,5-c]pyridine] | 23.2 | 6.2 | 31.6 | 86.5 | –
12 | CC1c2nnn(-c3ccc(F)cc3)c2C=CN1C(=O)c1cccc(C(F)(F)F)c1Cl (stereo not shown) [Example 81, 5-{[2-Chloro-3-(trifluoromethyl)phenyl]carbonyl}-1-(4-fluorophenyl)-4-methyl-4,5-dihydro-1H-[1,2,3]triazolo[4,5-c]pyridine] | – | 73.5 | 63.1 | 108 | 5.9
13 | CC1c2nnn(-c3ncccc3F)c2C=CN1C(=O)c1cccc(C(F)(F)F)c1Cl (stereo not shown) [Example 82, 5-{[2-Chloro-3-(trifluoromethyl)phenyl]carbonyl}-1-(3-fluoropyridin-2-yl)-4-methyl-4,5-dihydro-1H-[1,2,3]triazolo[4,5-c]pyridine] | – | 17.3 | 57.5 | 154 | 7.9
14 | CC1c2nnn(-c3ccc(F)cc3)c2CCN1C(=O)c1cccc(C(F)(F)F)c1Cl (stereo not shown) [Example 83, 5-{[2-Chloro-3-(trifluoromethyl)phenyl]carbonyl}-1-(4-fluorophenyl)-4-methyl-4,5,6,7-tetrahydro-1H-[1,2,3]triazolo[4,5-c]pyridine] | – | 16.9 | 158 | 397 | 4.5
15 | CC1c2nnn(-c3cc[nH]n3)c2C=CN1C(=O)c1cccc(C(F)(F)F)c1Cl (stereo not shown) [Example 86, 5-{[2-Chloro-3-(trifluoromethyl)phenyl]carbonyl}-4-methyl-1-(1H-pyrazol-3-yl)-4,5-dihydro-1H-[1,2,3]triazolo[4,5-c]pyridine] | – | 12.9 | 39.8 | 136 | 13.0
16 | O=C(c1cccc(C(F)(F)F)c1Cl)N1C=Cc2c(nnn2-c2cnccn2)C1 [Example 89, 5-{[2-Chloro-3-(trifluoromethyl)phenyl]carbonyl}-1-pyrazin-2-yl-4,5-dihydro-1H-[1,2,3]triazolo[4,5-c]pyridine] | −1.5 | 5.5 | 15.8 | 908 | –
17 | O=C(c1cccc(C(F)(F)F)c1Cl)N1C=Cc2c(nnn2-c2ccccn2)C1 [Example 90, 5-{[2-Chloro-3-(trifluoromethyl)phenyl]carbonyl}-1-pyridin-2-yl-4,5-dihydro-1H-[1,2,3]triazolo[4,5-c]pyridine] | 13.3 | 10.3 | 29.5 | 973 | –
18 | Cn1nc2c(c1-c1ccccn1)CCN(C(=O)c1cccc(C(F)(F)F)c1Cl)C2 [Example 92, 6-{[2-Chloro-3-(trifluoromethyl)phenyl]carbonyl}-2-methyl-3-pyridin-2-yl-4,5,6,7-tetrahydro-2H-pyrazolo[3,4-c]pyridine] | 2.8 | 5.4 | 26.3 | 440 | –
19 | O=C(c1cccc(C(F)(F)F)c1Cl)N1CCc2c(-c3ccccn3)n[nH]c2C1 [Example 93, 6-{[2-Chloro-3-(trifluoromethyl)phenyl]carbonyl}-3-pyridin-2-yl-4,5,6,7-tetrahydro-2H-pyrazolo[3,4-c]pyridine. TFA salt] | 9.0 | 7.9 | 39.8 | 251 | –
20 | O=C(c1cccc(C(F)(F)F)c1Cl)N1CCc2c(-c3ccc(F)cn3)n[nH]c2C1 [Example 94, 6-{[2-Chloro-3-(trifluoromethyl)phenyl]carbonyl}-3-(5-fluoropyridin-2-yl)-4,5,6,7-tetrahydro-2H-pyrazolo[3,4-c]pyridine] | – | 12.4 | 31.6 | 123 | 10.8
21 | O=C(c1cccc(C(F)(F)F)c1Cl)N1CCc2c(-c3cncc(F)c3)n[nH]c2C1 [Example 95, 6-{[2-Chloro-3-(trifluoromethyl)phenyl]carbonyl}-3-(5-fluoropyridin-3-yl)-4,5,6,7-tetrahydro-2H-pyrazolo[3,4-c]pyridine] | – | 204 | 316 | > 10000 | 14.4
22 | O=C(c1cccc(C(F)(F)F)c1Cl)N1CCc2c(-c3cccnc3)n[nH]c2C1 [Example 96, 6-{[2-Chloro-3-(trifluoromethyl)phenyl]carbonyl}-3-pyridin-3-yl-4,5,6,7-tetrahydro-2H-pyrazolo[3,4-c]pyridine] | – | 2.5 | 14.8 | 179 | 3.6
23 | O=C(c1cccc(C(F)(F)F)c1Cl)N1CCc2c(-c3cnccn3)n[nH]c2C1 [Example 97, 6-{[2-Chloro-3-(trifluoromethyl)phenyl]carbonyl}-3-pyrazin-2-yl-4,5,6,7-tetrahydro-2H-pyrazolo[3,4-c]pyridine] | – | 4.5 | 20 | 2290 | 12.7
24 | O=C(c1cccc(C(F)(F)F)c1Cl)N1CCc2c(-c3ncccn3)n[nH]c2C1 [Example 98, 6-{[2-Chloro-3-(trifluoromethyl)phenyl]carbonyl}-3-pyrimidin-2-yl-4,5,6,7-tetrahydro-2H-pyrazolo[3,4-c]pyridine] | – | 6.6 | 14.1 | 548 | 32.5
25 | O=C(c1ccnc(Cl)c1Cl)N1CCc2c(-c3ccccc3)n[nH]c2C1 [Example 104, 6-[(2,3-Dichloropyridin-4-yl)carbonyl]-3-phenyl-4,5,6,7-tetrahydro-1H-pyrazolo[3,4-c]pyridine] | 8.9 | 205 | 50.1 | 1610 | –
